{"source": "patent US9113629B2", "about": "“4-amino-6-(4-substituted-phenyl)-picolinates and 6-amino-2-(4-substituted-phenyl)-pyrimidine-4-carboxylates and their use as herbicides” (DOW AGROSCIENCES LLC, priority 2013, dated 2015)", "key": {"[1]": {"test_system": "Key Broadleaf Weed and Crop Species", "assay": "Post-emergent Test II herbicidal activity (Table 5)", "assay_type": "in vivo", "settings": "post-emergence, 336 h, post-emergent, 14 days after application; for pest or weed control at 70 g/ha: 70 g ai/ha; for pest or weed control at 140 g/ha: 140 g ai/ha", "how_it_was_run": "(§1)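 Greenhouse-grown plants at first or second true leaf stage were sprayed post-emergence with compound in acetone/DMSO-based aqueous spray containing crop oil concentrate and surfactant, at 187 L/ha, highest rate plus ½× to 1/16× dilutions. After 14 d, injury was scored visually versus untreated plants, 0 (none) to 100% (complete kill).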"}, "[2]": {"test_system": "Key Grass and Sedge Weeds as well as Grass Crops", "assay": "Post-emergent Test II herbicidal activity (Table 6)", "assay_type": "in vivo", "settings": "post-emergence, 336 h; for pest or weed control at 70 g/ha: application rate 70 g ai/ha; for pest or weed control at 140 g/ha: application rate 140 g ai/ha", "how_it_was_run": "as §1"}, "[3]": {"settings": "ABUTH: velvetleaf (Abutilon theophrasti), read-out: Visual Growth Reduction (%) 14 Days After Application ABUTH"}, "[4]": {"settings": "AMARE: redroot pigweed (Amaranthus retroflexus), read-out: Visual Growth Reduction (%) 14 Days After Application AMARE"}, "[5]": {"settings": "BRSNN: oilseed-rape, canola (Brassica napus), read-out: Visual Growth Reduction (%) 14 Days After Application BRSNN"}, "[6]": {"settings": "CHEAL: lambsquarters (Chenopodium album), read-out: Visual Growth Reduction (%) 14 Days After Application CHEAL"}, "[7]": {"settings": "EPHHL: wild poinsettia (Euphorbia heterophylla), read-out: Visual Growth Reduction (%) 14 Days After Application EPHHL"}, "[8]": {"settings": "HELAN: sunflower (Helianthus annuus), read-out: Visual Growth Reduction (%) 14 Days After Application HELAN"}, "[9]": {"settings": "VIOTR: wild pansy (Viola tricolor), read-out: Visual Growth Reduction (%) 14 Days After Application VIOTR"}, "[10]": {"settings": "Triticum aestivum, TRZSS (wheat), read-out: Visual Growth Reduction (%) 14 Days After Application, TRZSS"}, "[11]": {"settings": "CYPES: yellow nutsedge (Cyperus esculentus), read-out: Visual Growth Reduction (%) 14 Days After Application, CYPES"}, "[12]": {"settings": "DIGSA: crabgrass (Digitaria sanguinalis), read-out: Visual Growth Reduction (%) 14 Days After Application, DIGSA"}, "[13]": {"settings": "ECHCG: barnyardgrass (Echinochloa crus-galli), read-out: Visual Growth Reduction (%) 14 Days After Application, ECHCG"}, "[14]": {"settings": "ORYSA: rice (Oryza sativa), read-out: Visual Growth Reduction (%) 14 Days After Application, ORYSA"}, "[15]": {"settings": "SETFA: giant foxtail (Setaria faberi), read-out: Visual Growth Reduction (%) 14 Days After Application, SETFA"}, "[16]": {"settings": "SORVU: grain sorghum (Sorghum vulgare), read-out: Visual Growth Reduction (%) 14 Days After Application, SORVU"}, "[17]": {"settings": "ZEAMX: maize, corn (Zea mays), read-out: Visual Growth Reduction (%) 14 Days After Application, ZEAMX"}}, "note": "Where two headings read alike, the source gives them in different places."}
{"smiles": "C=Cc1c(N)nc(-c2ccc(F)c(F)c2F)nc1C(=O)OC", "note": "[Compound 197, Methyl 6-amino-2-(2,3,4-trifluorophenyl)-5-vinylpyrimidine-4-carboxylate]", "values": [{"measurement": "pest or weed control at 70 g/ha", "setting": "[1]; [3]", "value": "95 to 100", "unit": "%"}, {"measurement": "pest or weed control at 140 g/ha", "setting": "[1]; [3]", "value": "95 to 100", "unit": "%"}, {"measurement": "pest or weed control at 70 g/ha", "setting": "[1]; [4]", "value": "95 to 100", "unit": "%"}, {"measurement": "pest or weed control at 140 g/ha", "setting": "[1]; [4]", "value": "95 to 100", "unit": "%"}, {"measurement": "pest or weed control at 70 g/ha", "setting": "[1]; [5]", "value": "95 to 100", "unit": "%"}, {"measurement": "pest or weed control at 140 g/ha", "setting": "[1]; [5]", "value": "85 to 94", "unit": "%"}, {"measurement": "pest or weed control at 70 g/ha", "setting": "[1]; [6]", "value": "95 to 100", "unit": "%"}, {"measurement": "pest or weed control at 140 g/ha", "setting": "[1]; [6]", "value": "95 to 100", "unit": "%"}, {"measurement": "pest or weed control at 70 g/ha", "setting": "[1]; [7]", "value": "95 to 100", "unit": "%"}, {"measurement": "pest or weed control at 140 g/ha", "setting": "[1]; [7]", "value": "95 to 100", "unit": "%"}, {"measurement": "pest or weed control at 70 g/ha", "setting": "[1]; [8]", "value": "85 to 94", "unit": "%"}, {"measurement": "pest or weed control at 140 g/ha", "setting": "[1]; [8]", "value": "85 to 94", "unit": "%"}, {"measurement": "pest or weed control at 70 g/ha", "setting": "[1]; [9]", "value": "60 to 74", "unit": "%"}, {"measurement": "pest or weed control at 140 g/ha", "setting": "[1]; [9]", "value": "75 to 84", "unit": "%"}, {"measurement": "pest or weed control at 70 g/ha", "setting": "[2]; [10]", "value": "0 to 29", "unit": "%"}, {"measurement": "pest or weed control at 140 g/ha", "setting": "[2]; [10]", "value": "0 to 29", "unit": "%"}, {"measurement": "pest or weed control at 70 g/ha", "setting": "[2]; [11]", "value": "60 to 74", "unit": "%"}, {"measurement": "pest or weed control at 140 g/ha", "setting": "[2]; [11]", "value": "60 to 74", "unit": "%"}, {"measurement": "pest or weed control at 70 g/ha", "setting": "[2]; [12]", "value": "45 to 59", "unit": "%"}, {"measurement": "pest or weed control at 140 g/ha", "setting": "[2]; [12]", "value": "60 to 74", "unit": "%"}, {"measurement": "pest or weed control at 70 g/ha", "setting": "[2]; [13]", "value": "0 to 29", "unit": "%"}, {"measurement": "pest or weed control at 140 g/ha", "setting": "[2]; [13]", "value": "75 to 84", "unit": "%"}, {"measurement": "pest or weed control at 70 g/ha", "setting": "[2]; [14]", "value": "0 to 29", "unit": "%"}, {"measurement": "pest or weed control at 140 g/ha", "setting": "[2]; [14]", "value": "0 to 29", "unit": "%"}, {"measurement": "pest or weed control at 70 g/ha", "setting": "[2]; [15]", "value": "0 to 29", "unit": "%"}, {"measurement": "pest or weed control at 140 g/ha", "setting": "[2]; [15]", "value": "0 to 29", "unit": "%"}, {"measurement": "pest or weed control at 70 g/ha", "setting": "[2]; [16]", "value": "60 to 74", "unit": "%"}, {"measurement": "pest or weed control at 140 g/ha", "setting": "[2]; [16]", "value": "60 to 74", "unit": "%"}, {"measurement": "pest or weed control at 70 g/ha", "setting": "[2]; [17]", "value": "60 to 74", "unit": "%"}, {"measurement": "pest or weed control at 140 g/ha", "setting": "[2]; [17]", "value": "60 to 74", "unit": "%"}, {"measurement": "melting point", "value": "156 to 158", "unit": "°C"}]}
